Measured values published in patent US10538496B2, “Methods using HDAC11 inhibitors” (FORMA Therapeutics, Inc., priority 2016, dated 2020).

Legend:
HEL 92.1.7 cells = assay: Cell proliferation assay (CCK8); assay type: cell-based; conditions: 48h
Procedure: (§1) This example describes inhibition of in vitro cell proliferation with exemplary HDAC11 inhibitors. The effects of selective HDAC11 inhibitors on cell proliferation were measured in cell lines containing the MPN-associated mutations MPL W515L (Ba/F3 MPL W515L) and JAK2 V617F (Ba/F3 JAK2 V617F, HEL 92.1.7, SET-2). HEL 92.1.7 and SET-2 cells were purchased from the ATCC and DSMZ, respectively. Ba/F3 cells overexpressing either MPLW515L or JAK2V617F, which were cytokine independent, were generated by transforming Ba/F3 cells with retroviruses overexpressing either MPL W515L or JAK2V617F. For survival assays, cells were seeded in 96-well plates at the density of 0.1 million/ml with addition of indicated compounds and incubated at 37° C. for 48h. CCK8 solution (Dojindo, Rockville, Md.) was added and absorbance at 450 nm was measured after 3 hours of incubation. Readings were normalized to dimethylsulfoxide (DMSO)-treated wells.

SET-2 cells = assay: Cell proliferation assay (CCK8); assay type: cell-based; conditions: FIG. 4 legend
Procedure: as §1

SMILES: N#CC[C@H](C1CCCC1)n1cc(-c2ncnc3[nH]ccc23)cn1 [ruxolitinib, reference compound]
- growth of the HEL 92.1.7 cell line (HEL 92.1.7 cells): inhibited
- growth of SET-2 cell line (SET-2 cells): inhibited
